What was measured:
ruminal fluid [1] = test: in vitro Hohenheim gas test (HGT), methane concentration in fermentation gas; format: cell-based, sheep; conditions: 98.8 μg/ml; for Average Reduction (%) / Percentage of Control (First Run) / Percentage of Control (Second Run): methane; for Average Reduction (%): average of two runs
Description: (§1) The in vitro Hohenheim gas test (HGT) including the preparation of all buffers and reagents was carried out according to the protocol of Menke and Steingass (1988), “Menke K. H., Steingass H., Estimation of the energetic feed value obtained from chemical analysis and gas production using rumen fluid, Anim. Res. Dev. 28, 7-55”, the contents of which are incorporated herein by reference.
Briefly, ruminal fluid was strained through four layers of gauze (1 mm pore size, type 17 MedPro, Novamed AG, Flawil, Switzerland), before being mixed with preheated, reduced Menke buffer (Menke and Steingass, 1988). The ruminal fluid/buffer mixture was then dispensed into pre-warmed incubation units containing the respective test additives. Each airtight syringe unit contained 25 ml of a ruminal fluid/buffer mixture (1:3; v/v), 300 mg dried and ground total mixed ration (TMR) and […] of the test substrate prepared to give a desired concentration ml^−1. Each test substrate and controls were tested in six replicates, with each run including a substrate control (rumen fluid plus 300 mg dried and ground substrate of the total mixed ration (TMR) fed to the fistulated sheep from which the ruminal fluid was obtained). Each substrate was also tested on different days to allow for variability in the microbial community. This mixture was incubated for 8 hours at a constant temperature of 39° C. After 8 hours, total gas and liquid volumes were recorded from the calibrated scale printed on the incubation units and fermentation was terminated by decanting only the incubation liquid from the incubation units while fermentation gas was left inside. Then […] of gas was drawn from the incubation units with a Hamilton syringe (Hamilton, AG, Bonaduz, Switzerland) through a gas-tight septum covering the second outlet of the modified units. The main constituents of the flavonoid mix were naringin and neohesperidin at a ratio of 2.10:0.92. Monensin, a polyether antibiotic isolated from Streptomyces cinnamonensis, was used as a positive control.
Fermentation gas was analysed on a Hewlett Packard gas chromatograph (model 5890 Series II, Avondale, Pa., USA) for methane concentration. For the analysis of the volatile fatty acids (VFA), samples were prepared according to the method of Doane et al. (1998) and determined by HPLC (LaChrom, L-7000 series, Hitachi Ltd., Tokyo, Japan) following the protocol of Ehrlich et al. (1981). Reduction in methane emission results in accumulation of H2, which leads to the decreases of acetate:propionate ratio and acetate:butyrate ratio. This decreased ratio indicates an increase in propionate and butyrate (as formation of propionate and butyrate uses up the H2). The increase in propionate would then result in an increase of meat productivity in ruminants, while the increase in butyrate results in an increase of milk productivity in ruminants.
The in vitro Hohenheim gas test (HGT) was used to measure average reduction in methane using a composition comprising allicin and a green tea extract and a composition comprising allicin and a pomegranate extract. The green tea and pomegranate extracts were purchased from Ethical Natural Inc. (USA).
A composition comprising allicin and the flavonoid mix used in Example 1 was also tested. Monensin, a polyether antibiotic isolated from Streptomyces cinnamonensis, was used as a positive control.

ruminal fluid [2] = test: in vitro Hohenheim gas test (HGT), volatile fatty acids (VFA) by HPLC; format: cell-based, sheep; conditions: Table 2; 98.8 μg/ml
Description: as §1
Briefly, ruminal fluid was strained through four layers of gauze (1 mm pore size, type 17 MedPro, Novamed AG, Flawil, Switzerland), before being mixed with preheated, reduced Menke buffer (Menke and Steingass, 1988). The ruminal fluid/buffer mixture was then dispensed into pre-warmed incubation units containing the respective test additives. […] After 8 hours, total gas and liquid volumes were recorded from the calibrated scale printed on the incubation units and fermentation was terminated by decanting only the incubation liquid from the incubation units while fermentation gas was left inside. […]
Fermentation gas was analysed on a Hewlett Packard gas chromatograph (model 5890 Series II, Avondale, Pa., USA) for methane concentration. For the analysis of the volatile fatty acids (VFA), samples were prepared according to the method of Doane et al. (1998) and determined by HPLC (LaChrom, L-7000 series, Hitachi Ltd., Tokyo, Japan) following the protocol of Ehrlich et al. (1981). […]

CC[C@@]1([C@@H]2O[C@@H]([C@H]3O[C@@](O)(CO)[C@H](C)C[C@@H]3C)C[C@@H]2C)CC[C@H]([C@]2(C)CC[C@]3(C[C@H](O)[C@@H](C)[C@@H]([C@@H](C)[C@@H](OC)[C@H](C)C(=O)O)O3)O2)O1 [Monensin]
Average Methane Concentration (%) (First Run) (ruminal fluid [1]; Table 1, 8 h, 39° C.): 8.89%
Average Methane Concentration (%) (Second Run) (ruminal fluid [1]; Table 1, 8 h, 39° C.): 9.71%
Average Reduction (%) (ruminal fluid [1]; Table 1): 27%
Percentage of Control (First Run) (ruminal fluid [1]; Table 1): 73%
Percentage of Control (Second Run) (ruminal fluid [1]; Table 1): 74%
Average Methane Concentration (%) (First Run) (ruminal fluid [1]; Table 3): 8.2%
Average Methane Concentration (%) (Second Run) (ruminal fluid [1]; Table 3): 9.9%
Average Reduction (%) (ruminal fluid [1]; Table 3): 27%
Percentage of Control (First Run) (ruminal fluid [1]; Table 3): 66%
Percentage of Control (Second Run) (ruminal fluid [1]; Table 3): 80%
Average Methane Concentration (%) (First Run) (ruminal fluid [1]; Table 4): 8.1%
Average Methane Concentration (%) (Second Run) (ruminal fluid [1]; Table 4): 7.1%
Average Reduction (%) (ruminal fluid [1]; Table 4): 33%
Percentage of Control (First Run) (ruminal fluid [1]; Table 4): 67%
Percentage of Control (Second Run) (ruminal fluid [1]; Table 4): 66%
Butyrate Percentage of Control (%) (ruminal fluid [2]): 73%
Propionate Percentage of Control (%) (ruminal fluid [2]): 116%

— patent publication US20200138056A1, “ANIMAL FEED SUPPLEMENT” (MOOTRAL SA, priority 2017, published 2020)
